Target: σ1-receptor (Cavia porcellus (Guinea pig), UniProt Q60492)
Assay: σ1-receptor binding assay, [3H]-(+)-pentazocine displacement in brain membranes
Settings: radioligand [3H]-(+)-pentazocine 5.0 nM; for % Displacement (10^−6 M): compound at 10^−6 M
Protocol: Guinea pig brains were homogenized in 10 vols. (w/v) of Tris-HCl 50 mM 0.32 M sucrose, pH 7.4, with a Kinematica Polytron PT 3000 at 15000 r.p.m. for 30 s. The homogenate was centrifuged at 1000 g for 10 min at 4° C. and the supernatants collected and centrifuged again at 48000 g for 15 min at 4° C. The pellet was resuspended in 10 volumes of Tris-HCl buffer (50 mM, pH 7.4), incubated at 37° C. for 30 min, and centrifuged at 48000 g for 20 min at 4° C. Following this, the pellet was resuspended in fresh Tris-HCl buffer (50 mM, pH 7.4) and stored on ice until use.
The radioligand used was [^3H]-(+)-pentazocine at 5.0 nM and the final volume was 200 μl. The incubation was initiated with the addition of 100 μA of membrane at a final tissue concentration of approximately 5 mg tissue net weight/mL and the incubation time was 150 m. at 37° C. After incubation, the membranes were collected onto pretreated glass fiber filterplate (MultiScreen-FC, Millipore), with polyethylenimine 0.1%. The filters were washed two times with 200 μA of washing buffer (50 mM Tris CI, pH=7.4) and then 25 μl of Ecoscint H liquid scintillation cocktail were added. […] Nonspecific binding was determined with 1 μM haloperidol.

Sequence of σ1-receptor (Q60492 whole entry): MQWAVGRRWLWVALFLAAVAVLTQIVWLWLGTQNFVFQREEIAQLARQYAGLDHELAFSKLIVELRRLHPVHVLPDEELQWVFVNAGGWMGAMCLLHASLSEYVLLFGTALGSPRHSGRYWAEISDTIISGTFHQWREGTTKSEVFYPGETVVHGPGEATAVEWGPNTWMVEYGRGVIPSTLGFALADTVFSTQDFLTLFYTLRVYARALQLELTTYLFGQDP

% Displacement (10^−6 M) [%] | Ki [µM] | Ki (maleate) [µM] | SMILES
78.6 | 0.0731 |  | Cl.O=C(Nc1ncnc2c1cnn2CCN1CCCCC1)C1CCCCC1 [Example 6, N-(1-(2-(Piperidin-1-yl)ethyl)-1H-pyrazolo[3,4-d]pyrimidin-4-yl)cyclohexanecarboxamide hydrochloride]
91.4 | 0.108 |  | O=C(Nc1ccc(Cl)cc1Cl)Nc1ncnc2c1cnn2CCN1CCCCCC1.O=C(O)CC(O)(CC(=O)O)C(=O)O [Example 64, 1-(1-(2-(azepan-1-yl)ethyl)-1H-pyrazolo[3,4-d]pyrimidin-4-yl)-3-(2,4-dichlorophenyl)urea citrate]
49.50 | 0.7 |  | CC(C)(C)c1cc(C(=O)Nc2ncnc3c2cnn3CCN2CCCCC2)cc(C(C)(C)C)c1.Cl [Example 9, 3,5-di-tert-Butyl-N-(1-(2-(piperidin-1-yl)ethyl)-1H-pyrazolo[3,4-d]pyrimidin-4-yl)benzamide hydrochloride]
90.2 | 0.0567 |  | CC(C)N(CCn1ncc2c(NC(=O)C34CC5CC(CC(C5)C3)C4)ncnc21)C(C)C.O=C(O)/C=C\C(=O)O [Example 18, N-(1-(2-(Diisopropylamino)ethyl)-1H-pyrazolo[3,4-d]pyrimidin-4-yl)-1-adamantylcarboxamide maleate]
96.8 | 0.0279 |  | CC(C)(C)CC(C)(C)NC(=O)Nc1ncnc2c1cnn2CCN1CCCCCC1.O=C(O)/C=C\C(=O)O [Example 65, 1-(1-(2-(azepan-1-yl)ethyl)-1H-pyrazolo[3,4-d]pyrimidin-4-yl)-3-(2,4,4-trimethylpentan-2-yl)urea maleate]
68.2 | 0.244 |  | CC(C)N(CCn1ncc2c(NC(=O)C3CCCCC3)ncnc21)C(C)C.O=C(O)/C=C\C(=O)O [Example 16, N-(1-(2-(Diisopropylamino)ethyl)-1H-pyrazolo[3,4-d]pyrimidin-4-yl)cyclohexanecarboxamide maleate]
 | 0.74 |  | Cc1ccc(C)n1-c1ncnc2c1cnn2CCN1CCCCC1 [Example 105, 4-(2,5-dimethyl-1H-pyrrol-1-yl)-1-(2-(piperidin-1-yl)ethyl)-1H-pyrazolo[3,4-d]pyrimidine]
 | 0.221 |  | CC(=O)N(C)c1ncnc2c1cnn2CCN1CCCCCC1 [Example 101, N-(1-(2-(azepan-1-yl)ethyl)-1H-pyrazolo[3,4-d]pyrimidin-4-yl)-N-methylacetamide]
54.0 | 0.631 |  | CC(C)N(CCn1ncc2c(NC(=O)C3CCCC3)ncnc21)C(C)C.O=C(O)/C=C\C(=O)O [Example 28, N-(1-(2-(Diisopropylamino)ethyl)-1H-pyrazolo[3,4-d]pyrimidin-4-yl)cyclopentanecarboxamide maleate]
96.8 | 0.0149 |  | CNC(=S)Nc1ncnc2c1cnn2CCN1CCCCCC1.O=C(O)/C=C\C(=O)O [Example 76, 1-(1-(2-(azepan-1-yl)ethyl)-1H-pyrazolo[3,4-d]pyrimidin-4-yl)-3-methylthiourea maleate]
76.8 | 0.573 |  | CC(C)N1CCN(CCn2ncc3c(NC(=O)C45CC6CC(CC(C6)C4)C5)ncnc32)CC1.O=C(O)/C=C\C(=O)O [Example 31, N-(1-(2-(4-isopropylpiperazin-1-yl)ethyl)-1H-pyrazolo[3,4-d]pyrimidin-4-yl) 1-adamantylcarboxamide maleate]
 | 0.102 |  | CCCNC(=O)Nc1ncnc2c1cnn2CCCN1CCCCCC1 [Example 73, 1-(1-(3-(azepan-1-yl)propyl)-1H-pyrazolo[3,4-d]pyrimidin-4-yl)-3-propylurea]
90.8 | 0.055 |  | CC(C)N(CCn1ncc2c(NC(=O)C34C5CC6CC3CC64C5)ncnc21)C(C)C.Cl [Example 21, N-(1-(2-(Diisopropylamino)ethyl)-1H-pyrazolo[3,4-d]pyrimidin-4-yl)-1-noradamantylcarboxamide hydrochloride]
 | 0.212 |  | CCCNC(=O)Nc1ncnc2c1cnn2CCN1CCC(C(C)(C)C)CC1 [Example 74, 1-(1-(2-(4-tert-butylpiperidin-1-yl)ethyl)-1H-pyrazolo[3,4-d]pyrimidin-4-yl)-3-propylurea]
 | 0.252 |  | CCCNC(=O)Nc1ncnc2c1cnn2CCN1CCCOCC1 [Example 44, 1-(1-(2-(1,4-oxazepan-4-yl)ethyl)-1H-pyrazolo[3,4-d]pyrimidin-4-yl)-3-propylurea]
 | 0.329 |  | CN1CCN(CCCn2ncc3c(NC(=O)C(C)(C)C)ncnc32)CC1 [Example 86, N-(1-(3-(4-methylpiperazin-1-yl)propyl)-1H-pyrazolo[3,4-d]pyrimidin-4-yl)pivalamide]
63.3 |  | 0.683 | CC(C)N1CCN(CCn2ncc3c(NC(=O)C4CCCC4)ncnc32)CC1.O=C(O)/C=C\C(=O)O [Example 32, N-(1-(2-(4-isopropylpiperazin-1-yl)ethyl)-1H-pyrazolo[3,4-d]pyrimidin-4-yl)cyclopentanecarboxamide maleate]
25.9 | 0.805 |  | CC(C)N(CCn1ncc2c(NC(=O)NC(C)(C)C)ncnc21)C(C)C.Cl [Example 61, 1-tert-Butyl-3-(1-(2-(diisopropylamino)ethyl)-1H-pyrazolo[3,4-d]pyrimidin-4-yl)urea hydrochloride]
97.2 | 0.015 |  | Cl.O=C(Nc1ncnc2c1cnn2CCN1CCCCCC1)C12C3CC4CC1CC42C3 [Example 22, N-(1-(2-(Azepan-1-yl)ethyl)-1H-pyrazolo[3,4-d]pyrimidin-4-yl) 1-noradamantylcarboxamide hydrochloride]
 | 0.28 |  | CCCNC(=O)Nc1ncnc2c1cnn2CCCCN1CCC(C(C)(C)C)CC1 [Example 93, 1-(1-(4-(4-tert-butylpiperidin-1-yl)butyl)-1H-pyrazolo[3,4-d]pyrimidin-4-yl)-3-propylurea]

Reference: patent US9567338B2, “Pyrazolo[3,4-d]pyrimidine compounds, their preparation and use as sigma ligands” (LABORATORIOS DEL DR. ESTEVE S.A., priority 2011, dated 2017)
